The values that follow come from patent publication US7737182B2, “Pharmaceuticals for xerosis” (Taisho Pharmaceutical Co., Ltd., priority 2001, dated 2010).

For orientation: IC50 means the midpoint of a concentration-inhibition curve. One may read the inhibition as the drop in the measured response relative to a control, in per cent.

One test concerns guinea pig platelets. The test can be described thus: Suppression of ADP-induced aggregation of guinea pig platelets. The conditions noted are these: Cavia porcellus; guinea pig platelet-rich plasma, ADP (3 μM). The class given is cell-based. As for the experimental part: Ten-week-old Hartley male guinea pigs were anesthetized with pentobarbital (30 mg/kg, i.p. injected) and a total of 20 mL of blood was sampled into a syringe containing 2.0 mL of 3.8% sodium citrate. The blood was immediately centrifuged at 900 rpm for 10 minutes at 20° C. to recover the supernatant PRP. By further centrifugation at 3000 rpm for 10 minutes at 20° C., the supernatant PPP was recovered. The platelet count of PRP was diluted with PPP to 30×10^4 platelets/μL for subsequent use.
For platelet aggregation measurement, a platelet aggregation measuring instrument (PAM-8C) was employed. To 274 μL of PRP, 1 μL of a 0.287-95.7 nM test drug solution in ethanol was added and the mixture was incubated at 37° C. for 3 minutes with stirring at 1000 rpm. After the incubation, 25 μL of ADP (3 μM) was added to induce platelet aggregation and a maximum percent aggregation for 5 minutes was measured.
The percent suppression of aggregation by each test drug was calculated from the maximum percent aggregation by the test drug as relative to the maximum percent aggregation by ethanol instead of the test drug solution and IC50 values were determined from the constructed dose-response curve.

The test system of test [1] is NC/Nga mice manifesting atopic dermatitis. The experiment in a line: Spontaneous itch-evoked scratching behavior of NC mice (Test Example 1). The class given is in vivo. As for the experimental part:
About 20-week old NC/Nga mice each weighing about 30 g and manifesting atopic dermatitis were purchased from SLC and subjected to the following experiment. A magnet was buried in both hind paws of each mouse and by detecting its magnetism, the movement of the paws was measured with an itch measuring system (product of Neuroscience; when the mouse makes an action, the magnets move accordingly and a current flows through the coil; the moving magnets cause a change in the current, which is detected, measured and analyzed). Among the scratching actions, those lasting 1.5 seconds or longer were considered itch-evoked and their number was counted continuously. […] The subsequent 24-hr itch-evoked scratching behavior was measured and the number of itch-evoked scratchings after drug administration was compared with the initial count. The experimental data was processed to calculate the percent itch suppression on the basis of the total 24-hr itch-evoked scratching counts before and after drug application. For significance testing, the itch-evoked scratching counts that were obtained before and after drug application from individual animals in each group treated with a specific concentration of drug were processed by a paired t-test. Percent itch suppression (%)=(itch-evoked scratching count before drug application−itch-evoked scratching count after drug application)×100/itch-evoked scratching count before drug application (Results)

Test [2] has as its system NC mice induced to manifest dermatitis. The experiment in a line: Dermatitis score in dermatitis manifesting NC mouse models (Test Example 2). The class given is in vivo. The conditions noted are these: 0.01% in 100% ethanol, 200 μl on dorsal back, seven times a week for 4 weeks. Here is the method:
By suitably modifying a method known to the skilled artisan (Jpn. J. Pharmacol. 76, 175-183 (1998) Jun Hiroi, et al. Effects of Tacrolimus Hydrate (FK-506) Ointment on Spontaneous Dermatitis in NC/Nga Mice), the following test was conducted in order to confirm the antipruritic effect of compounds of the invention.
Animals: Four-week old SPF NC mice (male) were purchased from Japan SLC; right after their arrival, the SPF NC mice were kept together with dermatitis manifesting male NC mice (older than 20 weeks) for 2 weeks under the following conditions so as to induce itch-evoked scratching behavior. […]
Drug administration: To the dorsal backs of the 20-wk NC mice that were induced to manifest dermatitis as the result of cohabitation with the spontaneous dermatitis manifesting NC mice, 100% ethanol, compound No. 7 (0.01%) dissolved in 100% ethanol or tacrolimus (0.1%) dissolved in 100% ethanol was applied from an Eppendorf pipette in 200-μl doses seven times a week for a period of 4 weeks. […] Dermatitis score: Dermatitic symptoms were observed and measured once a week. […]

Test [3] concerns the target T1, thromboxane (TP) receptor (Homo sapiens, UniProt P21731).
T1 construct: endogenous in cells; host or cells: human washed platelets
T1 sequence (P21731 1-343): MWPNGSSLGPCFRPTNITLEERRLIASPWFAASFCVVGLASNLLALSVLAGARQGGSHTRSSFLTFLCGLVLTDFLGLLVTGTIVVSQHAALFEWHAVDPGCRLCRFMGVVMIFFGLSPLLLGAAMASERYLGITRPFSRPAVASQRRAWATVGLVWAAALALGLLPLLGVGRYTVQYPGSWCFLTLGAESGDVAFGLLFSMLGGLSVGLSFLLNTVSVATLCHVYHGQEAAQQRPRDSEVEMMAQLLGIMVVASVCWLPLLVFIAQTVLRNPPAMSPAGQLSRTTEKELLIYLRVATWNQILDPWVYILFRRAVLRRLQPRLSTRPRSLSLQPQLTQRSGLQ
The test can be described thus: Human TP antagonistic action: [3H]SQ29548 binding to human washed platelets. As for the experimental part: (C) The effect of the active ingredient of the present invention (compound No. 7) on a thromboxane (TP) receptor was measured as compared with the thromboxane agonist U44069 as a positive control drug.
The antagonistic action of the test drug on the [^3H]SQ29548 binding to human washed platelets was investigated on the basis of a documented method (J. Pharmacol. Exp. Ther., vol. 245, pp. 786-792, 1988).

On to `O=C(O)CSCCCC[C@@H]1[C@@H](C#C[C@@H](O)C2CCCCC2)[C@H](O)C[C@H]1Cl` [Compound No. 7], for which half-maximal inhibition in the test on guinea pig platelets (IC50) was put at 6.2 ± 2.3 nM. Besides, in test [1] (concentration 0.000001% in 100% ethanol, 0.2 ml/mouse on dorsal skin, 24-hr scratching counts before vs after), the “Inhibition rate (%) (percent itch suppression)” value is on record as 43.26%. Moreover, the “Efficacy (significance, paired t-test)” value in test [1] (concentration 0.000001%, scratching counts before vs after application) is listed as “** (**: P < 0.01)”. Further, in test [2], the “dermatitis score suppressing action compared to the vehicle group” value was “significant dermatitis score suppressing action”. Moreover, the inhibition at 1 µM in test [3] (1 μM) came out at 7%. This compound also yielded an inhibition at 10 µM in test [3] (concentration of 10 μM) of 28%.
